≈ marks a conversion by molar mass, not a printed value.
How the values were obtained:
[1] = system: P. aeruginosa ATCC 27853; assay: microbe, parasite or virus in culture; type: cell-based; settings: Pseudomonas aeruginosa, ATCC27853, read-out: MIC P. aeruginosa ATCC 27853
[2] = system: N. gonorrhoeae FA1090; assay: Liquid broth MIC in Fastidious broth; settings: Neisseria gonorrhoeae, FA1090, read-out: Minimum Inhibitory Concentration (MIC), N. gonorrhoeae FA 1090
[3] = system: N. gonorrhoeae WHO Z; assay: Liquid broth MIC in Fastidious broth; settings: Neisseria gonorrhoeae, read-out: Minimum Inhibitory Concentration (MIC), N. gonorrhoeae WHO Z
[4] = system: N. gonorrhoeae CDC-0197; assay: Liquid broth MIC in Fastidious broth; settings: Neisseria gonorrhoeae, CDC0197, read-out: Minimum Inhibitory Concentration (MIC), N. gonorrhoeae CDC-0197
[5] = system: N. gonorrhoeae WHO K; assay: Liquid broth MIC in Fastidious broth; settings: Neisseria gonorrhoeae, read-out: Minimum Inhibitory Concentration (MIC), N. gonorrhoeae WHO K
[6] = system: A. baumannii ATCC 19606; assay: microbe, parasite or virus in culture; type: cell-based; settings: Acinetobacter baumannii, ATCC19606, read-out: MIC, A. baumannii ATCC 19606
[7] = system: N. gonorrhoeae WHO Q; assay: Liquid broth MIC in Fastidious broth; settings: Neisseria gonorrhoeae, read-out: Minimum Inhibitory Concentration (MIC), N. gonorrhoeae WHO Q
Description: Liquid broth-based assays were used for antibacterial testing of PBP inhibitors in Neisseria gonorrhoeae. Briefly, cryo-preserved bacterial cultures of clinical strains were streaked for isolation on Chocolate Agar (72 g/L (2×) GC Agar Base (BD #228950) and 2% (2×) Hemoglobin was autoclaved at 121° C. for 20 minutes to sterilize. Once cooled to ˜50° C. the 2×GC Agar Base and 2× Hemoglobin solutions are combined and 1% IsoVitaleX Enrichment (BD #211876) was added to the solution). Strains were incubated at 36° C. and 5% CO2 to allow growth of colonies, 24 hours before inoculum preparation. 2-fold serial dilutions of test compounds were conducted in a 96 well plate with a final volume of 75 μL per well at 2-fold the final desired concentration in Fastidious broth (Remel #R07664). For preparation of assay inoculum, a direct suspension was prepared by aseptically swabbing 10-15 colonies from agar plates into culture tubes containing 2 mL of fresh sterile saline. After the dilution plates were set up, direct suspensions were then diluted in a cuvette containing sterile saline and the optical density was measured at 600 nm. Inocula were diluted such that 75 μL of this culture in Fastidious broth results in a starting bacterial concentration of 5×10^5 CFU/mL when added to the dilution plates. The plates were incubated for ˜24 hours at 36° C. and 5% CO2.

| Structure (SMILES) | MIC [1] [µg/mL] | MIC [2] [µg/mL] | MIC [3] [µg/mL] | MIC [4] [µg/mL] | MIC [5] [µg/mL] | MIC [6] [µg/mL] | MIC [7] [µg/mL] |
| --- | --- | --- | --- | --- | --- | --- | --- |
| O=C(O)c1cccc2c1OB(O)[C@@H](NC(=O)C(NC(=O)C(F)(F)F)c1ccc(P(=O)(O)O)cc1)C2 (stereo partly drawn) [Example 172, (3R)-2-hydroxy-3-(2-(4-phosphonophenyl)-2-(2,2,2-trifluoroacetamido)acetamido)-3,4-dihydro-2H-benzo[e][1,2]oxaborinine-8-carboxylic acid] | > 128 | 4 to 8 (≈ 7.75 to 15.5 µM) | 16 to 32 (≈ 31 to 62 µM) | 16 to 32 (≈ 31 to 62 µM) | 16 to 32 (≈ 31 to 62 µM) | > 128 | 16 to 32 (≈ 31 to 62 µM) |
| N#Cc1ccnc(C(=O)NC(C(=O)N[C@H]2Cc3cccc(C(=O)O)c3OB2O)c2ccc(P(=O)(O)O)cc2)c1 (stereo partly drawn) [Example 179, (3R)-3-(2-(4-cyanopicolinamido)-2-(4-phosphonophenyl)acetamido)-2-hydroxy-3,4-dihydro-2H-benzo[e][1,2]oxaborinine-8-carboxylic acid] | > 128 | 1 to 2 (≈ 1.82 to 3.63 µM) | 16 to 32 (≈ 29.1 to 58.2 µM) | 16 to 32 (≈ 29.1 to 58.2 µM) | 16 to 32 (≈ 29.1 to 58.2 µM) | > 128 | 16 to 32 (≈ 29.1 to 58.2 µM) |
| O=C(O)c1cccc2c1OB(O)[C@@H](NC(=O)[C@@H](NC(=O)c1cnc3sccn3c1=O)c1ccc(P(=O)(O)O)cc1)C2 (single isomer, unassigned) [Example 194] | > 128 | 1 to 2 (≈ 1.67 to 3.34 µM) | 16 to 32 (≈ 26.7 to 53.5 µM) | 16 to 32 (≈ 26.7 to 53.5 µM) | 16 to 32 (≈ 26.7 to 53.5 µM) | > 128 | 16 to 32 (≈ 26.7 to 53.5 µM) |
| CN1CCC[C@@H]1C(=O)N[C@@H](C(=O)N[C@H]1Cc2cccc(C(=O)O)c2OB1O)c1ccc(P(=O)(O)O)cc1 (racemic) [Example 54, (R)-2-hydroxy-3-((S)-2-((R)-1-methylpyrrolidine-2-carboxamido)-2-(4-phosphonophenyl)acetamido)-3,4-dihydro-2H-benzo[e][1,2]oxaborinine-8-carboxylic acid and (R)-2-hydroxy-3-((R)-2-((R)-1-methylpyrrolidine-2-carboxamido)-2-(4-phosphonophenyl)acetamido)-3,4-dihydro-2H-benzo[e][1,2]oxaborinine-8-carboxylic acid] | > 128 | 4 to 8 (≈ 7.53 to 15.1 µM) | 16 to 32 (≈ 30.1 to 60.2 µM) | 4 to 8 (≈ 7.53 to 15.1 µM) | 16 to 32 (≈ 30.1 to 60.2 µM) | > 128 | 16 to 32 (≈ 30.1 to 60.2 µM) |
| O=C(O)c1cccc2c1OB(O)[C@@H](NC(=O)C(NC(=O)[C@H]1CCCN1)c1ccc(P(=O)(O)O)cc1)C2 (stereo partly drawn) [Example 52, (3R)-2-hydroxy-3-(2-(4-phosphonophenyl)-2-((R)-pyrrolidine-2-carboxamido)acetamido)-3,4-dihydro-2H-benzo[e][1,2]oxaborinine-8-carboxylic acid] | > 128 | 16 to 32 (≈ 30.9 to 61.9 µM) | 16 to 32 (≈ 30.9 to 61.9 µM) | 16 to 32 (≈ 30.9 to 61.9 µM) | 16 to 32 (≈ 30.9 to 61.9 µM) | > 128 | 16 to 32 (≈ 30.9 to 61.9 µM) |
| O=C(O)c1cccc2c1OB(O)[C@@H](NC(=O)C(NC(=O)c1ccc[nH]c1=O)c1ccc(P(=O)(O)O)cc1)C2 (stereo partly drawn) [Example 174, (3R)-2-hydroxy-3-(2-(2-oxo-1,2-dihydropyridine-3-carboxamido)-2-(4-phosphonophenyl)acetamido)-3,4-dihydro-2H-benzo[e][1,2]oxaborinine-8-carboxylic acid] | > 128 | 1 to 2 (≈ 1.85 to 3.7 µM) | 16 to 32 (≈ 29.6 to 59.1 µM) | 16 to 32 (≈ 29.6 to 59.1 µM) | 16 to 32 (≈ 29.6 to 59.1 µM) | > 128 | 16 to 32 (≈ 29.6 to 59.1 µM) |
| CCN1CCN(C(=O)N[C@H](C(=O)N[C@H]2Cc3ccc(F)c(C(=O)O)c3OB2O)c2ccc(P(=O)(O)O)cc2)C(=O)C1=O (single isomer, unassigned) [Example 9] | > 128 | < 1 | < 1 | < 1 | 1 to 2 (≈ 1.65 to 3.3 µM) | > 128 | 1 to 2 (≈ 1.65 to 3.3 µM) |
| Nc1ncc(C(=O)N[C@@H](C(=O)N[C@H]2Cc3cccc(C(=O)O)c3OB2O)c2ccc(P(=O)(O)O)cc2)s1 (racemic) [Example 50, (R)-3-((S)-2-(2-aminothiazole-5-carboxamido)-2-(4-phosphonophenyl)acetamido)-2-hydroxy-3,4-dihydro-2H-benzo[e][1,2]oxaborinine-8-carboxylic acid and (R)-3-((R)-2-(2-aminothiazole-5-carboxamido)-2-(4-phosphonophenyl)acetamido)-2-hydroxy-3,4-dihydro-2H-benzo[e][1,2]oxaborinine-8-carboxylic acid] | > 128 | 1 to 2 (≈ 1.83 to 3.66 µM) | 16 to 32 (≈ 29.3 to 58.6 µM) | 16 to 32 (≈ 29.3 to 58.6 µM) | 16 to 32 (≈ 29.3 to 58.6 µM) | > 128 | 16 to 32 (≈ 29.3 to 58.6 µM) |
| O=C(O)c1cccc2c1OB(O)[C@@H](NC(=O)[C@H](NC(=O)c1c[nH]ccc1=O)c1ccc(P(=O)(O)O)cc1)C2 [Example 175, (R)-2-hydroxy-3-((R)-2-(4-oxo-1,4-dihydropyridine-3-carboxamido)-2-(4-phosphonophenyl)acetamido)-3,4-dihydro-2H-benzo[e][1,2]oxaborinine-8-carboxylic acid] | 32 to 64 (≈ 59.1 to 118 µM) | < 1 | 4 to 8 (≈ 7.39 to 14.8 µM) | 4 to 8 (≈ 7.39 to 14.8 µM) | 16 to 32 (≈ 29.6 to 59.1 µM) | > 128 | 4 to 8 (≈ 7.39 to 14.8 µM) |
